Test results: patent US20100113436A1, “DISPIRO TETRAOXANE COMPOUNDS AND THEIR USE IN THE TREATMENT OF MALARIA AND/OR CANCER” (priority 2006, published 2010)
≈ marks a conversion by molar mass, not a printed value. Where two headings read alike, the source gives them in different places.

Legend:
[1] = Timed iron degradation stability, FeBr2 in THF; type: physicochemical; conditions: ferrous bromide/THF, after 48 h
From the text: The resulting residue was purified by flash column chromatography and the % recovery of starting endoperoxide calculated (Table 15).

Vero Kidney = test: Cellular cytotoxicity screen, Resazurin reduction; type: cell-based, African green monkey, Cercopithecus aethiops; conditions: for Theraputic Index (TI): ratio TOX 50 to IC50 against 3D7 P. falciparum
From the text: (§1) Values represent Tox 50 in μM. Cytotoxicity measured by Resazurin reduction.
(§2) Single full dose response curves generated using 10 independent drug concentrations. The 100 therapeutic index (TI) is the ration of the TOX 50 to the IC50 for the specific compound against the 3D7 P. falciparum isolate. The primary hepatocytes have demonstrable drug metabolising activity. The tetraoxane derivatives are remarkably non-toxic in these screens with in vitro TIs of between 5000 to 17000!.

[2] = test system: 3D7 strain of Plasmodium falciparum; test: In vitro antimalarial activity, 48-h [3H]-hypoxanthine incorporation assay; type: cell-based
Description: The 3D7 strain of Plasmodium falciparum was used in this study. This strain is known to be […] Parasites were maintained in continuous culture using the method of Jensen and Trager^4. […] Stock drug solutions were prepared in 100% dimethylsulphoxide (DMSO) and diluted to the appropriate concentration using complete medium. Assays were performed in sterile 96-well microlitre plates, each plate contained 200 μl of parasite culture (2% parasitemia, 0.5% haematocrit) with or without 10 μl drug dilutions. Each drug was tested in triplicate and parasite growth compared to control wells (which constituted 100% parasite growth). […] IC50 values were calculated by interpolation of the probit transformation of the log dose-response curve.

[3] = test system: Salmonella typhimurium TA1535/pSK1002; test: Salmonella typhimurium SOS/umu genotoxicity assay; conditions: for genotoxicity result in SOS/umu assay: both strains TA1535/pSK1002 and NM2009, highest concentration tested 50 μM, absence and presence of S-9 mix; for Max. Fold Increase / Potential genotox: −S9
From the text: (§3) This assay is based on the ability of DNA damaging agents to induce the expression of the umu operon. The Salmonella strains have a plasmid pSK1002 which carries an umuC-lacZ fused gene that produces a hybrid protein with β-galactosidase activity and whose expression is controlled by the umu regulatory region.

[4] = test system: Salmonella typhimurium NM2009; test: Salmonella typhimurium SOS/umu genotoxicity assay
From the text: as §3

[5] = test system: MRC-5 Embryonal lung, diploid; test: Cellular cytotoxicity screen, Resazurin reduction; type: cell-based, Human; conditions: for Theraputic Index (TI): ratio TOX 50 to IC50 against 3D7 P. falciparum
From the text: as §1, §2

[6] = test system: L6 Sketal muscle myoblast; test: Cellular cytotoxicity screen, Resazurin reduction; type: cell-based, rat; conditions: for Theraputic Index (TI): ratio TOX 50 to IC50 against 3D7 P. falciparum
From the text: as §1, §2

[7] = test system: H9c2(2-1) Myocardium, heart; test: Cellular cytotoxicity screen, Resazurin reduction; type: cell-based, rat; conditions: H9c(2-1); for Theraputic Index (TI): ratio TOX 50 to IC50 against 3D7 P. falciparum
From the text: as §1, §2

[8] = test system: HepG2 Human hepatocyte carcinoma; test: Cellular cytotoxicity screen, Resazurin reduction; type: cell-based; conditions: Hep2G; for Theraputic Index (TI): ratio TOX 50 to IC50 against 3D7 P. falciparum
From the text: as §1, §2

P. berghei ANKA [9] = test: In vivo dose response screening against P. berghei ANKA; conditions: P. berghei ANKA infected mice; Table 9; sigmoidal curve calculation
P. berghei ANKA [10] = test: as above; parameters: species or system mice; conditions: for ED50: Plasmodium berghei
Description: Compound 29c, 29h and 291 were then subjected to dose response experiment against the P. berghei ANKA and the results are summarized in Table 7 below.

Plasmodium yoelli = test: 4-day Peter's suppressive test; type: in vivo; conditions: 4-day Peter's test, mice
Description: Selections of the compounds were screened for in vivo activity. In vivo data (Table 6) was determined using 30 mg/kg oral (po) and subcutaneous (sc) doses in a 4-days Peter's test. For subcutaneous administration, compounds were dissolved in 10% dimethylsulfoxide (DMSO) 0.05% Tween 80 (Sigma, Dorset, UK) in distilled water. For oral administration, compounds were dissolved in standard suspending formula (SSV) [0.5% sodium carboxymethylcellulose, 0.5% benzyl alcohol, 0.4% Tween 80, 0.9% NaCl (all Sigma)]. Subcutaneous (s.c) or oral (p.o) treatment was done with 0.2 ml of a solution of the test compound two hours (day 0) and on days 1, 2, and 3 post infections. Parasitaemia was determined by microscopic examination of Giemsa stained blood films taken on day 4. Microscopic counts of blood films from each mouse were processed using MICROSOFT@EXCELL spreadsheet (Microsoft Corp.) and expressed as percentage of inhibition from the arithmetic mean parasitaemias of each group in relation to the untreated group.

[11] = test system: Plasmodium falciparum DD2; test: In vitro analysis versus strains of Plasmodium falciparum: DD2; type: cell-based
[12] = test system: Plasmodium falciparum PH3; test: In vitro analysis versus strains of Plasmodium falciparum: PH3; type: cell-based
Plasmodium falciparum K1 = test: In vitro analysis versus strains of Plasmodium falciparum: K1; type: cell-based; conditions: K1 strain
[13] = test system: Plasmodium falciparum GC03; test: In vitro analysis versus strains of Plasmodium falciparum: GC03; type: cell-based
[14] = test system: Plasmodium falciparum HB3; test: In vitro analysis versus strains of Plasmodium falciparum: HB3; type: cell-based
[15] = test system: Plasmodium falciparum TM4; test: In vitro analysis versus strains of Plasmodium falciparum: TM4; type: cell-based
[16] = test system: Plasmodium falciparum V1S; test: microbe, parasite or virus in culture; type: cell-based
[17] = 3D7, 3D7 strain, mean of triplicate results, Table 5, read-out: Mean IC50
[18] = in Mus musculus, Chloroquine Resistant Strains of the P. Berghei ANKA, Table 7

O=S(=O)(c1ccccc1)N1CCC2(CC1)COC1(OO2)C2CC3CC(C2)CC1C3 (centres unmarked) [Tetraoxane 43]
degraded [1]: 57%

O=S(=O)(C1CC1)N1CCC2(CC1)OOC1(OO2)C2CC3CC(C2)CC1C3 [Tetraoxane 39d]
Tox 50 (Vero Kidney): >50 µM | Theraputic Index (TI) (Vero Kidney): >14285 | IC50 ([2]; 3D7, read-out: Mean IC50): 3.52 nM | MCE TA1535 (Maximum Co w/o effects on bacteria growth or β-galactosidase production) ([3]; Salmonella typhimurium): 50 µM | genotoxicity result in SOS/umu assay [3]: Negative | Max. Fold Increase [3]: 1.05 ± 0.09 fold | Potential genotox [3]: NEG | MCE NM2009 (Maximum Co w/o effects on bacteria growth or beta-galactosidase production) ([4]; Salmonella typhimurium): 50 µM | Max. Fold Increase ([4]; −S9): 1.09 ± 0.03 fold | Potential genotox ([4]; −S9): NEG | Tox 50 [5]: >50 µM | Theraputic Index (TI) [5]: >14285 | Tox 50 [6]: >50 µM | Theraputic Index (TI) [6]: >14285 | Tox 50 [7]: >50 µM | Theraputic Index (TI) [7]: >14285 | Tox 50 [8]: >50 µM | Theraputic Index (TI) [8]: >14285 | ED90 (P. berghei ANKA [9]): 49.77 mg/kg | ED50 (P. berghei ANKA [10]; P. berghei ANKA infected mice, Table 9): 7.93 mg/kg | solubility (physchem): 50 µM (≈ 19.3 µg/mL)

CN1CCN(C(=O)CC2CCC3(CC2)OOC2(OO3)C3CC4CC(C3)CC2C4)CC1 (centres unmarked) [Tetraoxane 29l]
IC50 [2, 17]: 0.5 nM | Percentage of inhibition at 30 mg/kg (p.o) (Plasmodium yoelli): 100% | ED50 (P. berghei ANKA [10]; [18]): 2.7 mg/kg

O=C(CC1CCC2(CC1)OOC1(OO2)C2CC3CC(C2)CC1C3)N1CCOCC1 (centres unmarked) [Tetraoxane 29h, Adamantly-1-Morpholin-4-yl tetraoxane acetamide]
Tox 50 (Vero Kidney): >50 µM | Theraputic Index (TI) (Vero Kidney): >16666 | IC50 ([2]; 3D7, read-out: Mean IC50): 5.2 nM | IC50 ([11]; DD2 strain, read-out: IC50): 0.6 nM | IC50 ([12]; PH3 strain, read-out: IC50): 0.3 nM | Percentage of inhibition at 30 mg/kg (p.o) (Plasmodium yoelli): 100% | MCE TA1535 (Maximum Co w/o effects on bacteria growth or β-galactosidase production) ([3]; Salmonella typhimurium): 50 µM | genotoxicity result in SOS/umu assay [3]: Negative | Max. Fold Increase [3]: 1.04 ± 0.04 fold | Potential genotox [3]: NEG | MCE NM2009 (Maximum Co w/o effects on bacteria growth or beta-galactosidase production) ([4]; Salmonella typhimurium): 50 µM | Max. Fold Increase ([4]; −S9): 1.22 ± 0.03 fold | Potential genotox ([4]; −S9): NEG | Tox 50 [5]: >50 µM | Theraputic Index (TI) [5]: >16666 | Tox 50 [6]: 23 µM | Theraputic Index (TI) [6]: 7666 | Tox 50 [7]: >50 µM | Theraputic Index (TI) [7]: >16666 | Tox 50 [8]: >50 µM | Theraputic Index (TI) [8]: >16666 | melting point: 139 to 140 °C | ED90 (P. berghei ANKA [10]; Chloroquine Resistant Strains of the P. Berghei ANKA, Table 7): 3.88 mg/kg | ED50 (P. berghei ANKA [10]; [18]): 3.18 mg/kg | IC50 (Plasmodium falciparum K1): 0.8 nM | IC50 ([13]; GC03 strain, read-out: IC50): 0.9 nM | IC50 ([14]; HB3 strain, read-out: IC50): 1.4 nM | solubility (physchem): 50 µM (≈ 20.4 µg/mL) | IC50 ([15]; TM4 strain, read-out: IC50): 0.6 nM

O=C(CC1CCC2(CC1)OOC1(CCCCC1)OO2)NC1CC1 [Tetraoxane 27c, N-Cyclopropyl-2-(7,8,15,16-tetraoxa-dispiro[5.2.5.2]hexadec-3-yl)-acetamide]
Percentage of inhibition at 30 mg/kg (p.o) (Plasmodium yoelli): 24.8% | melting point: 148 to 150 °C

CC(C)(C)NCc1cc(Nc2ccnc3cc(Cl)ccc23)ccc1Cl [Tetraoxane D535, 4′Chloro N-tertbutyl amodiaquin, reference compound]
MCE TA1535 (Maximum Co w/o effects on bacteria growth or β-galactosidase production) [3]: 140 µM | Max. Fold Increase [3]: 1.10 ± 0.07 fold | Potential genotox [3]: NEG | MCE NM2009 (Maximum Co w/o effects on bacteria growth or beta-galactosidase production) [4]: 140 µM | Potential genotox [4]: NEG

O=C(CC1CCC2(CC1)OOC1(CCCCC1)OO2)N1CCOCC1 [Tetraoxane 27h, 1-Morpholin-4-yl-2-(7,8,15,16-tetraoxa-dispiro[5.2.5.2]hexadec-3-yl)-ethanone]
IC50 [2, 17]: 22.2 nM | Percentage of inhibition at 30 mg/kg (p.o) (Plasmodium yoelli): 33.0% | melting point: 126 to 128 °C

CCN(CC)CCCC(C)Nc1ccnc2cc(Cl)ccc12 (centres unmarked) [Chloroquine, reference compound]
IC50 ([2]; 3D7, read-out: Mean IC50): 8.5 nM | IC50 ([11]; DD2): 80.5 nM | IC50 [12]: 72 nM | IC50 [13]: 8.1 nM | IC50 ([14]; HB3): 6.6 nM | IC50 [16]: 83.7 nM | IC50 [15]: 91.3 nM
